Source: paper PMC10973839, “CHF6297: a novel potent and selective p38 MAPK inhibitor with robust anti-inflammatory activity and suitable for inhaled pulmonary administration as dry powder” (Frontiers in Pharmacology, 2024)
pIC50: −log10 of the molar value.

Assays:
[1] = system: TS-induced neutrophil influx in BALF; assay: BALF neutrophilia induced by tobacco smoke exposure in mice; type: in vivo, C57BL6J female mice; conditions: 0.3 mg/kg i.n., 4 days TS exposure
Procedure: C57BL6J female mice aged 9–10 weeks (Harlan Laboratories S.r.l) in groups of 8 were exposed, via whole-body inhalation, twice daily 1 h apart, for 4 consecutive days, to the tobacco smoke (TS) (generated using “Marlboro Gold: 9 mg of tar and 0.7 mg nicotine”) of two cigarettes/exposure on days 1 and 2, three cigarettes/exposure on day 3, and four cigarettes/exposure on the last exposure day in clear polycarbonate chambers (27 cm × 16 cm × 12 cm). The smoke was introduced into the exposure chambers (21100-790 Ugo Basile, Biological Research Instruments, Comerio, Varese, Italy), with the airflow generated by using a mechanical ventilator (7025 Rodent Ventilator, Ugo Basile). Each exposure chamber was connected to a different ventilator set at a rate of 100 mL/min (frequency: 50 strokes/min; volume: 2 mL/stroke). At regular intervals (after burning two cigarettes), the exposure chambers were opened and aired. Sham and control mice were exposed to air only in the same manner for the same duration of time.
CHF6297 (0.03 and 0.3 mg/kg) and budesonide (0.3 mg/kg), our reference compound and vehicle (0.2% Tween 80 in saline), respectively, were administered intranasally in a volume of 30 µL, 1 h before and 5 h after TS exposure under light isoflurane anesthesia.
A BAL was performed using a volume of 0.6 mL of phosphate-buffered saline that was gently instilled and withdrawn three times using a 12-mL syringe. BALF cells were separated by centrifugation (10 min at 3,070 g), and the supernatant was removed. The resulting cell pellet was resuspended in a known volume of PBS, and the total cell numbers were calculated by counting a stained (Turk’s stain) aliquot under a microscope using a hemacytometer. The cell pellet was resuspended to approximately 10^5 cells per ml, and cytospin slides were prepared by centrifugation (8 min at 72.26 g; Shandon Cytospin; Thermo Shandon Ltd., Runcorn, Cheshire, United Kingdom). The slides were air-dried and stained using Wright–Giemsa stain, following the manufacturer’s instructions. A differential cell count was performed using light microscopy. Approximately 400 cells were counted from each slide. The cells were identified using standard morphometric techniques.

[2] = system: IAV-induced airway neutrophilia in HDM-challenged mice; assay: Influenza virus A (H3N2)-induced exacerbation in HDM-sensitized mice; type: in vivo, Balb/c mice; conditions: 100 μg/kg twice daily for 3 days
rat PBMCs = assay: TNF-α release in LPS-stimulated PBMCs; type: cell-based; conditions: PBMC, LPS 10 ng/mL, 18 h
Procedure: Peripheral blood mononuclear cells (PBMCs) were isolated from the blood of healthy human volunteers and Wistar rats (250–350 gr; Charles River, Calco, Italy) using a standard density gradient centrifugation technique. The citrated blood was placed onto Histopaque^TM and centrifuged. The PBMCs were then removed from the density gradient interface and washed in phosphate-buffered saline (PBS). The PBMCs were suspended in RPMI 1640 medium (without serum), aliquoted into a 96-well plate, and incubated at 37°C for 3 h in a humidified incubator. After incubation, the medium was replaced (with a medium containing 1% fetal bovine serum), and the plate was incubated at 37°C, for 1 h, in the presence of a test compound or the appropriate vehicle. LPS (10 ng/mL), or an appropriate vehicle control, was then added to the cells, and the plate was returned to the incubator for 18 h. Cell-free supernatants were removed and assayed for TNF-α levels using MSD plates on the SECTOR Imager 6000 (Meso Scale).

HBSMCs = assay: CSE-evoked IL-8 release in human bronchial smooth muscle cells; type: cell-based
Procedure: Cigarette smoke extract (CSE) was generated as reported previously ([Moretto et al., 2012]). Briefly, aqueous CSE was obtained from the combustion of four cigarettes (Marlboro Red, 12 mg tar, 0.9 mg nicotine each) bubbled through 50 mL of the culture medium and subsequently filtered through a 0.2-μm-pore filter (Millipore, Billerica, MA). To ensure reproducibility among different CSE batches, the absorbance [optical density (OD)] measured at 320 nm was used as a measure of the “strength” of the extract. Dilutions were made with culture media to obtain the desired absorbance. The CSE was freshly prepared on the day of the experiment and immediately used after preparation. Human bronchial smooth muscle cells (HBSMCs) were seeded in DMEM with 10% FBS (50 U/mL penicillin, 0.05 mg/mL streptomycin, and 2 mM L-glutamine) in 48-well plates at a density of 10,000 cells/well, grown to ∼80%–90% confluence and incubated overnight in serum-free DMEM before treatments. All the treatments were performed in serum-free DMEM. The cells were pretreated for 30 min with either the vehicle or CHF6297 or losmapimod before stimulation with freshly prepared CSE, TNF-α, (1 ng/mL), or the vehicle for 18 h at 37°C. Human IL-8 was measured in the collected supernatants by use of a paired-antibody quantitative ELISA kit (BioSource International, Camarillo, CA).

[3] = system: i.v. LPS-induced TNF-α in blood; assay: Intravenous LPS-induced TNF-α release in rat blood; type: in vivo, rats; conditions: oral gavage, i.v. LPS

Structure (SMILES): CCCC1O[C@@H]2C[C@H]3[C@@H]4CCC5=CC(=O)C=C[C@]5(C)[C@H]4[C@@H](O)C[C@]3(C)[C@]2(C(=O)CO)O1 (stereo partly drawn) [budesonide, reference compound]
- neutrophils in BALF [1]: 0.5 ± 0.1 × 10^5 cells/mL
- neutrophils in BAL fluid [2]: 2.08 ± 0.23 × 10^5 cells/mL

Structure (SMILES): Cc1c(F)cc(C(=O)NC2CC2)cc1-c1ccc(C(=O)NCC(C)(C)C)cn1 [losmapimod, reference compound]
- pIC50 (rat PBMCs): 7.92
- maximum inhibition of IL-8 (HBSMCs; CSE-evoked): 100%
- pIC50 (HBSMCs; Homo sapiens, 18 h): 8.04
- effect on TNF-α levels in blood [3]: marked reduction in TNF-α levels
